Where two headings read alike, the source gives them in different places.
Tests used:
clinical DILI in man = conditions: cited from earlier work
[1] = ref DrugBank and Prescribers' Digital Reference database; cited from earlier work
[2] = tested on: primary human hepatocytes (PHH) 3D spheroids
[3] = therapeutic total cmax; ref PMID; cited from earlier work
PHH 2D sandwich cultures = conditions: PHH 2D sandwich cultures, 100x Cmax; ref Xu 2008; cited from earlier work
[4] = DILI classification score, ref Suzuki et al. (2010)
[5] = FDA drug labeling DILI concern, ref Chen et al., 2011
[6] = FDA drug labeling DILI score, ref Chen et al., 2011
[7] = clinical DILI classification in man (POS/NEG)
[8] = clinical DILI classification used in this study, Supplementary Table 2, ref Chen et al., 2011, Guo et al., 2005, O'Brien et al., 2006, Sakatis et al., 2012, Suzuki et al., 2010, Xu et al., 2008
[9] = clinical DILI classification, Supplementary Table 1, ref Chen et al., 2011, Guo et al., 2005, O'Brien et al., 2006, Sakatis et al., 2012, Suzuki et al., 2010, Xu et al., 2008
[10] = clinical DILI classification, ref Xu et al. (2008)
[11] = reported pattern of liver damage, Supplementary Table 2, ref literature

SMILES	Extent of hepatic metabolism [1]	Chemically defined spheroids (this study) 20x [2]	Cmax [3] [nM]	Classified as (clinical DILI in man; in vivo)	Clinical DILI class (panel heading of Figure 4) (clinical DILI in man; in vivo)	DILI in vivo (clinical DILI in man; in vivo)	Type of DILI (clinical DILI in man; in vivo)	also measured
CN1Cc2c(N)cccc2C(c2ccccc2)C1 (centres unmarked) [Nomifensine]	Moderate	Positive	5640	–	–	–	–	Suzuki et al. (2010) (clinical DILI in man; [4]): 3; FDA (Severity) (clinical DILI in man; [5]): most DILI concern; FDA (0-8) (clinical DILI in man; [6]): Withdrawn; DILI in vivo (clinical DILI in man; [7]): POS; Classified as (clinical DILI in man; [8]): POS; DILI in vivo (clinical DILI in man; [9]): POS; Xu et al. (2008) (clinical DILI in man; [10]): Positive; Type of DILI (clinical DILI in man; [11]): Cholestatic injury
CN(C)/N=N/c1[nH]cnc1C(N)=O [Dacarbazine]	Extensive	Positive	16600	POS	Severe DILI	POS	Hepatocellular injury	FDA (0-8) (clinical DILI in man; in vivo): 6; FDA (Severity) (clinical DILI in man; in vivo): most DILI concern; Guo et al. (2005) (clinical DILI in man; in vivo): 3; Sakatis et al. (2012) (clinical DILI in man; in vivo): Hepatotoxic
Fc1ccc([C@@H]2CCNC[C@H]2COc2ccc3c(c2)OCO3)cc1 [Paroxetine]	Extensive	Negative	50	–	–	–	–	Suzuki et al. (2010) (clinical DILI in man; [4]): 2; FDA (Severity) (clinical DILI in man; [5]): less DILI concern; FDA (0-8) (clinical DILI in man; [6]): 8; DILI in vivo (clinical DILI in man; [7]): NEG; Classified as (clinical DILI in man; [8]): NEG; DILI in vivo (clinical DILI in man; [9]): NEG; Xu et al. (2008) (clinical DILI in man; [10]): Negative; O'Brien et al. (2003) (clinical DILI in man; clinical hepatotoxicity classification, ref O'Brien et al. (2003)): Moderately; Type of DILI (clinical DILI in man; [11]): Non-hepatotoxic
OC(Cn1cncn1)(Cn1cncn1)c1ccc(F)cc1F [Fluconazole]	Minimal	Negative	8820	POS	Severe DILI	POS	Hepatocellular injury	FDA (0-8) (clinical DILI in man; in vivo): 8; FDA (Severity) (clinical DILI in man; in vivo): most DILI concern; Guo et al. (2005) (clinical DILI in man; in vivo): 3; Sakatis et al. (2012) (clinical DILI in man; in vivo): Hepatotoxic; Suzuki et al. (2010) (clinical DILI in man; in vivo): 1; Xu et al. (2008) (clinical DILI in man; in vivo): Positive
CN(C)CCN(Cc1cccs1)c1ccccn1 [Methapyrilene]	Moderate	–	170	NEG	DILI negative	NEG	Non-hepatotoxic	–
CC/C(=C(\c1ccccc1)c1ccc(OCCN(C)C)cc1)c1ccccc1 [Tamoxifen]	Extensive	–	160	–	–	–	–	–
CC(C)NCC(O)COc1cccc2ccccc12 (centres unmarked) [Propranolol]	Extensive	–	–	–	–	–	–	–
CN1CCN(C2=Nc3cc(Cl)ccc3Nc3ccccc32)CC1 [Clozapine]	Extensive	–	2450	–	–	–	–	–
CCc1c(C)[nH]c2c1C(=O)C(CN1CCOCC1)CC2 (centres unmarked) [Molindone]	–	Negative	1540	POS	High DILI concern	POS	Hepatocellular injury	2Dsw (Xu 2008) 100x (PHH 2D sandwich cultures): Negative
